Reference: PubChem BioAssay (NCI)
Where “and” joins values, the source holds several entries; their conditions need not be identical. Identical values can stand only once.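 Following 48 hours of exposure in 96-well plates, responses at five concentrations were used to interpolate endpoints linearly. GI50 is the concentration that inhibits growth by half. TGI is the concentration that stops growth completely.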

How the values were obtained:
Experiment in all cases: NCI-60 cell line screen, 48 h
SR leukemia = tested on: SR leukemia
UACC-257 melanoma = tested on: UACC-257 melanoma
HCT-15 colon = tested on: HCT-15 colon
PC-3 prostate = tested on: PC-3 prostate
SK-MEL-5 melanoma = tested on: SK-MEL-5 melanoma
SW-620 colon = tested on: SW-620 colon
ACHN renal = tested on: ACHN renal
DU-145 prostate = tested on: DU-145 prostate
A498 renal = tested on: A498 renal
KM12 colon = tested on: KM12 colon

Row | SMILES | TGI (SR leukemia) [µM] | TGI (UACC-257 melanoma) | TGI (HCT-15 colon) | TGI (PC-3 prostate) [µM] | TGI (SK-MEL-5 melanoma) | TGI (SW-620 colon) | TGI (ACHN renal) | TGI (DU-145 prostate) [µM] | TGI (A498 renal) | TGI (KM12 colon) | GI50 (SR leukemia) [µM] | GI50 (HCT-15 colon) [µM] | GI50 (PC-3 prostate) [µM] | GI50 (SK-MEL-5 melanoma) [µM] | GI50 (SW-620 colon) [µM] | GI50 (ACHN renal) [µM] | GI50 (DU-145 prostate) [µM] | GI50 (A498 renal) [µM] | GI50 (KM12 colon) [µM] | GI50 (UACC-257 melanoma) [µM]
1 | Nc1nc(SCc2ccccc2Cl)cc(C(=O)O)n1 | > 100 | > 100 µM | > 100 µM | > 100 | > 100 µM | > 100 µM | > 100 µM | > 100 | > 100 µM | > 100 µM | – | – | – | – | – | – | – | – | – | –
2 | CC(=O)O[C@H]1C(=O)[C@@]2(C)[C@H]([C@H](OC(=O)c3ccccc3)[C@]3(O)C[C@H](OC(=O)[C@H](OC(=O)OC[C@H]4COC(C)(C)O4)[C@@H](NC(=O)c4ccccc4)c4ccccc4)C(C)=C1C3(C)C)[C@]1(OC(C)=O)CO[C@@H]1C[C@@H]2O | > 33.3 | > 33.3 µM | > 33.3 µM | > 33.3 | > 33.3 µM | > 33.3 µM | > 33.3 µM | – | 0.499 µM | > 33.3 µM | 0.0126 | 0.228 | 0.0305 | 0.0832 | 0.0138 | 0.343 | 0.029 | 0.0545 | 0.00943 | –
3 | O=C(CI)Nc1ccc(O)c2ccccc12 | 3.75 | 3.14 µM | 2.48 µM | 9.69 | 3.08 µM | 0.886 µM | 2.84 µM | 3.87 | 9.12 µM | 3.69 µM | 0.726 | 0.817 | 2.38 | 1.63 | 0.282 | 1.49 | 1.88 | 2.37 | 1.9 | 1.54
4 | Cc1ccc(NC(=O)/C(Cc2cc(=O)oc3cc(O)ccc23)=N\NC(C)(C)C)cc1C | > 100 | > 100 µM | > 100 µM | > 100 | > 100 µM | > 100 µM | > 100 µM | > 100 | > 100 µM | > 100 µM | – | – | – | – | – | – | – | – | – | –
5 | CO[C@H]1C[C@](C)(O)Cc2cc3c(c(O)c21)C(=O)c1c(O)cc2c(c1C3=O)O[C@@H]1O[C@@]2(C)[C@H](O)[C@@H](N(C)C)[C@@H]1O | 0.647 | 7.55 µM and 31.6 µM | 3.4 µM and 10.9 µM | 15.9 | 3.17 µM and 10.2 µM | 3.87 µM and 7.69 µM | 1.31 µM and 1.9 µM | 7.14 | 7.95 µM and 5.14 µM | 3.18 µM and 11.4 µM | – | – | – | – | 0.847 | 0.107 | – | 1.66 | 1.39 | 3.78
6 | CC(=O)/C=C/C1=C(c2csc3ccccc23)c2ccccc2CC1 | 64.6 | 53.9 µM | > 100 µM | > 100 | 28.8 µM | > 100 µM | 88.3 µM | > 100 | 50.2 µM | 33.8 µM | 16 | 23.5 | 29.9 | 13.4 | 28 | 25.4 | 29.4 | 22.4 | 14.1 | 20.8
7 | O=C1C(=O)c2ccccc2C(O)=C1CCCc1ccc(C2CCCCC2)cc1 | 31 | > 100 µM | 24.6 µM | 44.8 | 13.9 µM | 19.5 µM | > 100 µM | 36.5 | 20.9 µM | 17.9 µM | 2.44 | 3 | 0.722 | 1.52 | 4.36 | 5.15 | 5.17 | 2.35 | 4.16 | 6.5
